Literature values in PMC9851200, “Multiparameter phenotypic screening for endogenous TFEB and TFE3 translocation identifies novel chemical series modulating lysosome function” (Autophagy, 2022).

Columns and labels:
Design in all cases: method as in original PKIS2 published data
[1] = molecular target: kinases (KINOMEscan panel) (Homo sapiens, UniProt Q9UBF8); settings: kinase PI4KB; Published KINOMEscan; ref original PKIS2 published data; cited from earlier work
[2] = molecular target: kinases (KINOMEscan panel) (Homo sapiens, UniProt P49841); settings: Published KINOMEscan; ref original PKIS2 published data; cited from earlier work
Sequence of kinases (KINOMEscan panel) (Homo sapiens, UniProt P49841) (P49841 whole entry): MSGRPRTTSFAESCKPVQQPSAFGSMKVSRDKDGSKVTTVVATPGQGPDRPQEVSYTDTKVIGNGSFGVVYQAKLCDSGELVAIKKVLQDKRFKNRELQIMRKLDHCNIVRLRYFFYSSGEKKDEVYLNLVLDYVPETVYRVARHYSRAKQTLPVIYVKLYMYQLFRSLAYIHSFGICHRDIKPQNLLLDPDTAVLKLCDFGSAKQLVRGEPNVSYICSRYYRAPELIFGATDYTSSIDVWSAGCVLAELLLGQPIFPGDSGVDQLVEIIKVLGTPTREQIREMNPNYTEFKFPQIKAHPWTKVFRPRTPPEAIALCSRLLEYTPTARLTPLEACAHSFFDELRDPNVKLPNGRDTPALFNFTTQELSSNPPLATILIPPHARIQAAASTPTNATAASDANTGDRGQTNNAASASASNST

[3] = molecular target: kinases (KINOMEscan panel) (Homo sapiens, UniProt P22694); settings: PRKACB; Published KINOMEscan; ref original PKIS2 published data; cited from earlier work
[4] = molecular target: kinases (KINOMEscan panel) (Homo sapiens, UniProt O75914); settings: Published KINOMEscan; ref original PKIS2 published data; cited from earlier work
Sequence of kinases (KINOMEscan panel) (Homo sapiens, UniProt O75914) (O75914 whole entry): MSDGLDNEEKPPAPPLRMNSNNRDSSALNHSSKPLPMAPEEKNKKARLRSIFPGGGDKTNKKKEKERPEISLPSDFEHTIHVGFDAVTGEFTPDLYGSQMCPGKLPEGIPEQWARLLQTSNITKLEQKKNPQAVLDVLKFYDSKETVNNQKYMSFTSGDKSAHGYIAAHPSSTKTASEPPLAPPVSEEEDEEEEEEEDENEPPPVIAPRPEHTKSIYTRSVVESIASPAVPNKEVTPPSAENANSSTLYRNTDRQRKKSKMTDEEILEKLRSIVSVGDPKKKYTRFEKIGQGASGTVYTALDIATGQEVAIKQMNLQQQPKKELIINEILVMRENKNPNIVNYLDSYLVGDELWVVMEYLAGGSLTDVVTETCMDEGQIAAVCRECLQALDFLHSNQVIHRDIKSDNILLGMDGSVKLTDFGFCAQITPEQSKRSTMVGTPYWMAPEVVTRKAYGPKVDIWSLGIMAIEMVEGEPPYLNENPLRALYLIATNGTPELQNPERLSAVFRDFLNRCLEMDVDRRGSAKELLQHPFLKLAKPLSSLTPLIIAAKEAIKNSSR

[5] = molecular target: kinases (KINOMEscan panel) (Homo sapiens, UniProt Q9NQU5); settings: PAK6; Published KINOMEscan; ref original PKIS2 published data; cited from earlier work
[6] = molecular target: kinases (KINOMEscan panel) (Homo sapiens, UniProt Q05655); settings: kinase PRKCD; Published KINOMEscan; ref original PKIS2 published data; cited from earlier work
[7] = molecular target: kinases (KINOMEscan panel) (Homo sapiens, UniProt P09619); settings: Published KINOMEscan; ref original PKIS2 published data; cited from earlier work
[8] = molecular target: T1, kinases (KINOMEscan panel) (Homo sapiens, UniProt Q02156); settings: kinase PRKCE; Published KINOMEscan; ref original PKIS2 published data; cited from earlier work
T1 sequence (Q02156 1-737): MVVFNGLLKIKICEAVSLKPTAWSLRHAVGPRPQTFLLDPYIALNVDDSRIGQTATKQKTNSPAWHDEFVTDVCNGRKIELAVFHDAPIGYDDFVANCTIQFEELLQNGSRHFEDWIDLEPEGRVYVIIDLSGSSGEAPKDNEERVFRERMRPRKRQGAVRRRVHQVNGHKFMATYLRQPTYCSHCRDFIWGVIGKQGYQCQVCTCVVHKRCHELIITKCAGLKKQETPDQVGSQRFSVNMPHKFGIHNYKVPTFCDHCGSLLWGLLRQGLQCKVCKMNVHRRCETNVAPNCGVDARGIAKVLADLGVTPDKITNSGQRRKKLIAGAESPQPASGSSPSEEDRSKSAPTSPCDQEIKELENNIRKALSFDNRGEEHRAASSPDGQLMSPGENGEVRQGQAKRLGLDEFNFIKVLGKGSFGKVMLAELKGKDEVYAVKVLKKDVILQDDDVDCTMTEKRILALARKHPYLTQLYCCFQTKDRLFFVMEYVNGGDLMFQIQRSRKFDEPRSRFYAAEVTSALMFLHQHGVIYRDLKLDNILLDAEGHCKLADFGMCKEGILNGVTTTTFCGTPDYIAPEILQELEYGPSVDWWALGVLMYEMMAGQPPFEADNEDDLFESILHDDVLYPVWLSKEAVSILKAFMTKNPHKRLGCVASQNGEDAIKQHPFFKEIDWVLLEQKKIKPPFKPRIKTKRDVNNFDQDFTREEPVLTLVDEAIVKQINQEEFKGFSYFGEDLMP

[9] = molecular target: kinases (KINOMEscan panel) (Homo sapiens, UniProt Q9Y2H9); settings: MAST1; Published KINOMEscan; ref original PKIS2 published data; cited from earlier work
Sequence of kinases (KINOMEscan panel) (Homo sapiens, UniProt Q9Y2H9) (Q9Y2H9 whole entry): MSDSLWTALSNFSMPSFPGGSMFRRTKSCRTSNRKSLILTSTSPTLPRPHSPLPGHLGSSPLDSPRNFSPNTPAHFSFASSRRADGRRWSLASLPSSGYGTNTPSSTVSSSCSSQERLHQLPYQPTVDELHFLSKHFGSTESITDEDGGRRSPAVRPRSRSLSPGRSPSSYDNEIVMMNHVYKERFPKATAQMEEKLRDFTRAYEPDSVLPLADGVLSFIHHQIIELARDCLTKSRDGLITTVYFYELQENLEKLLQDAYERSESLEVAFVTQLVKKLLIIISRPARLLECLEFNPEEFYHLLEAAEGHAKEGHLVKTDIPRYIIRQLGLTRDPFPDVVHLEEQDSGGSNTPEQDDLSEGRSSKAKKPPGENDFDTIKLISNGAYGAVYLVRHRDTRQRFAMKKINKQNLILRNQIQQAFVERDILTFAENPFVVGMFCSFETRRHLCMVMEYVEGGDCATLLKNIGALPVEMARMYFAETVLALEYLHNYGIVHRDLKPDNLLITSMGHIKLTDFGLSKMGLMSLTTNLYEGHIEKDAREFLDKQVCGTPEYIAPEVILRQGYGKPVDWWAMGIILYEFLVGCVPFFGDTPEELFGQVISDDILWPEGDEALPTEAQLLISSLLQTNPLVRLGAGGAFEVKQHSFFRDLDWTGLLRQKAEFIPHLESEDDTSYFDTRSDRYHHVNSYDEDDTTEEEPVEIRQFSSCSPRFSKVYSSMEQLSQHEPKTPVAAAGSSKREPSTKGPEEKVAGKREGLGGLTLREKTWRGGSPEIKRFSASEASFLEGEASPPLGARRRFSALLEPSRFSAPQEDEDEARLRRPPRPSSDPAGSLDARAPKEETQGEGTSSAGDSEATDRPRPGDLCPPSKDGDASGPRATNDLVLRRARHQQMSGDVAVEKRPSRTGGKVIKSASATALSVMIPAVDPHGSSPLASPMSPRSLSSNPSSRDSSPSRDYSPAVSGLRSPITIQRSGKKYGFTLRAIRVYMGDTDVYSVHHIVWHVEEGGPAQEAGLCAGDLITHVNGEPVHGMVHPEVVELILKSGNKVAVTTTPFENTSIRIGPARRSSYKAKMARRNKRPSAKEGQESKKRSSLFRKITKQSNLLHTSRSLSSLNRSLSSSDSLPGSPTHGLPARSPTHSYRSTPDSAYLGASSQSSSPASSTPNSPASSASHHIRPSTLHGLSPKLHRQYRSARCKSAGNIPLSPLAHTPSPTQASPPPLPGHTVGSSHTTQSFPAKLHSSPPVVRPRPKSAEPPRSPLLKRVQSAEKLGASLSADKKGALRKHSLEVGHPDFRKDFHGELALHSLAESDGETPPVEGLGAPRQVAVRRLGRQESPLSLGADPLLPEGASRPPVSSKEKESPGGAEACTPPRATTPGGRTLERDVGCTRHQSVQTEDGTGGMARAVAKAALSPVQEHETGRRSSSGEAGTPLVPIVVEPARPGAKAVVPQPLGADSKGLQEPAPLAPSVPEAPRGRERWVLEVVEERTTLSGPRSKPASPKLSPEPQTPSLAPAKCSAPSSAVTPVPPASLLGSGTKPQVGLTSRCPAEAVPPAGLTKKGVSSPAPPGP

[10] = molecular target: kinases (KINOMEscan panel) (Homo sapiens, UniProt Q13554); settings: kinase CAMK2B; Published KINOMEscan; ref original PKIS2 published data; cited from earlier work
Sequence of kinases (KINOMEscan panel) (Homo sapiens, UniProt Q13554) (Q13554 whole entry): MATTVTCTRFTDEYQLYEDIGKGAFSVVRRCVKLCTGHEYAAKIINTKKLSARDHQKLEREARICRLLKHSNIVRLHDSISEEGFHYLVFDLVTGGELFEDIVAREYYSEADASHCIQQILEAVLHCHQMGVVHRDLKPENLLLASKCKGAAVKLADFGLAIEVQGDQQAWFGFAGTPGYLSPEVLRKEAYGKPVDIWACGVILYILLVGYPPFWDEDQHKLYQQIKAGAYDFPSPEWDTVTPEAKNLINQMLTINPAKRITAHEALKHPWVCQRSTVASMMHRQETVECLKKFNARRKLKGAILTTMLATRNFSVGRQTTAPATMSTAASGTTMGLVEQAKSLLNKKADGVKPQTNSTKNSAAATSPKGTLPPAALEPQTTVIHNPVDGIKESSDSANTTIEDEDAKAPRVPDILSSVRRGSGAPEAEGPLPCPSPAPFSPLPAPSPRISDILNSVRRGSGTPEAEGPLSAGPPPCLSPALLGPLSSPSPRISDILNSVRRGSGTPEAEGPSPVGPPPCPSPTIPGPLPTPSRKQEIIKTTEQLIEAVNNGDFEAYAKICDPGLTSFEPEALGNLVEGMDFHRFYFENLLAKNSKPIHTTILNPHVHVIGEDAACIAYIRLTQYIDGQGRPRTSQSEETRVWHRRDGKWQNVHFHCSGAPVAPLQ

[11] = molecular target: kinases (KINOMEscan panel) (Homo sapiens, UniProt P19525); settings: kinase ElF2AK2; Published KINOMEscan; ref original PKIS2 published data; cited from earlier work
Sequence of kinases (KINOMEscan panel) (Homo sapiens, UniProt P19525) (P19525 whole entry): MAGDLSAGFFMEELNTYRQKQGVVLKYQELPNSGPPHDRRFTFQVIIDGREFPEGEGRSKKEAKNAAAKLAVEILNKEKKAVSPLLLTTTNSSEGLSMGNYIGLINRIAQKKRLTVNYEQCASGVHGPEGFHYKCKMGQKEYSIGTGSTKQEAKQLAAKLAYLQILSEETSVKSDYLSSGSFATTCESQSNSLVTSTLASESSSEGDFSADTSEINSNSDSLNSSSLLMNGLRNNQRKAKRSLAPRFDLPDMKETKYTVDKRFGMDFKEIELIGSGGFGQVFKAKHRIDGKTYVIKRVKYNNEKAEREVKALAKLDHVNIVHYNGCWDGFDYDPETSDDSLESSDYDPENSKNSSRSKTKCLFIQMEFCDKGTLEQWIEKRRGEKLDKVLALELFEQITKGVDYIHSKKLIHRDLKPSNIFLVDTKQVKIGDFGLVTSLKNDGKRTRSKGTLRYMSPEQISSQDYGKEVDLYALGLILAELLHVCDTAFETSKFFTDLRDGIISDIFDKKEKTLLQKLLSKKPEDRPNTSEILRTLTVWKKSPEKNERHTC

[12] = molecular target: kinases (KINOMEscan panel) (Homo sapiens, UniProt P78368); settings: kinase CSNK1G2; Published KINOMEscan; ref original PKIS2 published data; cited from earlier work
Sequence of kinases (KINOMEscan panel) (Homo sapiens, UniProt P78368) (P78368 whole entry): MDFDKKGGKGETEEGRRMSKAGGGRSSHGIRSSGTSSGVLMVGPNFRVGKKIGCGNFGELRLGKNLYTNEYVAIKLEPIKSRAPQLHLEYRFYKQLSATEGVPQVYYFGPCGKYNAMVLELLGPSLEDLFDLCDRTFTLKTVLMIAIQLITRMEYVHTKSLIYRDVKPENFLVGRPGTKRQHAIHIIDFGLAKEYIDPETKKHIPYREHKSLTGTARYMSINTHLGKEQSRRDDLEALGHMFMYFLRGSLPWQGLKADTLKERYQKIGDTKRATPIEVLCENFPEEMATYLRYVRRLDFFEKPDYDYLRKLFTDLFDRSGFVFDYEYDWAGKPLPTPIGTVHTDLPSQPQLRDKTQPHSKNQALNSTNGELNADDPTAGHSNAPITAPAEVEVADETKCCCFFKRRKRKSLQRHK

Sequence of kinases (KINOMEscan panel) (Homo sapiens, UniProt Q9UBF8) (Q9UBF8 whole entry): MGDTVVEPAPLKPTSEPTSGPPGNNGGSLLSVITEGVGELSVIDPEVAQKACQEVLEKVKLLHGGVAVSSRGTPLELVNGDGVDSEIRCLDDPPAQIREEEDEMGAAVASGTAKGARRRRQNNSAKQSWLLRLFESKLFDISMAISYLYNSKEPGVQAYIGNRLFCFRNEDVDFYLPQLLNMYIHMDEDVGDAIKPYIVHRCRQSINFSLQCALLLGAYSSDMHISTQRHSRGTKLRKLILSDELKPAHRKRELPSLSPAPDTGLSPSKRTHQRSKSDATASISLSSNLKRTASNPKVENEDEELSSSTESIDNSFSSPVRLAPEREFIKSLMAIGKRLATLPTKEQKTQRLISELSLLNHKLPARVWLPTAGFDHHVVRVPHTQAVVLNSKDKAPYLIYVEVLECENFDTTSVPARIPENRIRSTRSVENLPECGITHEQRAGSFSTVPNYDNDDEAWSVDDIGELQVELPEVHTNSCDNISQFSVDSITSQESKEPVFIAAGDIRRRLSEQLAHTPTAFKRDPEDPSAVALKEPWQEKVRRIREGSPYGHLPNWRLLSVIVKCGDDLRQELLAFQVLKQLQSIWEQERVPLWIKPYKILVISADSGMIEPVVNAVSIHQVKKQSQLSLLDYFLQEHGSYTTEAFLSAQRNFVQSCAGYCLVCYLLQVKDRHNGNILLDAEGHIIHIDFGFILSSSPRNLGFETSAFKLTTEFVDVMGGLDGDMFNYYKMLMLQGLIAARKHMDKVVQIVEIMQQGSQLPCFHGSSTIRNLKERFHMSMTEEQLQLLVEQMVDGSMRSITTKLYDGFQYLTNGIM

In the case of `Cc1cccc(-c2nc(Nc3ccncc3)c3ccccc3n2)n1` [NK215], the “KINOMEscan PI4KB” value [1] is listed as 0, the “KINOMEscan GSK3B” value [2] is listed as 0 and the “KINOMEscan PRKACB” value [3] is listed as 30. The “KINOMEscan PAK3” value [4] was 0, the “KINOMEscan PAK6” value [5] was 3 and the “KINOMEscan PRKCD” value [6] was 29. The “KINOMEscan PDGFRB” value [7] was 3, the “KINOMEscan PRKCE” value [8] was 0 and the “KINOMEscan MAST1” value [9] was 50. For the same compound, the “KINOMEscan CAMK2B” value [10] was 0, the “KINOMEscan ElF2AK2” value [11] was 2 and the “KINOMEscan CSNK1G2” value [12] was 20.
